Literature values, collected in article PMC9516332 (Frontiers in Oncology, 2022).
Read-outs that look alike come from different tables or passages of the source.

Experiments:
[1] = molecular target: T1, panel of 255 wild-type kinases (Homo sapiens, UniProt Q9UF33); conditions: cited from earlier work
T1 sequence (Q9UF33 23-1036): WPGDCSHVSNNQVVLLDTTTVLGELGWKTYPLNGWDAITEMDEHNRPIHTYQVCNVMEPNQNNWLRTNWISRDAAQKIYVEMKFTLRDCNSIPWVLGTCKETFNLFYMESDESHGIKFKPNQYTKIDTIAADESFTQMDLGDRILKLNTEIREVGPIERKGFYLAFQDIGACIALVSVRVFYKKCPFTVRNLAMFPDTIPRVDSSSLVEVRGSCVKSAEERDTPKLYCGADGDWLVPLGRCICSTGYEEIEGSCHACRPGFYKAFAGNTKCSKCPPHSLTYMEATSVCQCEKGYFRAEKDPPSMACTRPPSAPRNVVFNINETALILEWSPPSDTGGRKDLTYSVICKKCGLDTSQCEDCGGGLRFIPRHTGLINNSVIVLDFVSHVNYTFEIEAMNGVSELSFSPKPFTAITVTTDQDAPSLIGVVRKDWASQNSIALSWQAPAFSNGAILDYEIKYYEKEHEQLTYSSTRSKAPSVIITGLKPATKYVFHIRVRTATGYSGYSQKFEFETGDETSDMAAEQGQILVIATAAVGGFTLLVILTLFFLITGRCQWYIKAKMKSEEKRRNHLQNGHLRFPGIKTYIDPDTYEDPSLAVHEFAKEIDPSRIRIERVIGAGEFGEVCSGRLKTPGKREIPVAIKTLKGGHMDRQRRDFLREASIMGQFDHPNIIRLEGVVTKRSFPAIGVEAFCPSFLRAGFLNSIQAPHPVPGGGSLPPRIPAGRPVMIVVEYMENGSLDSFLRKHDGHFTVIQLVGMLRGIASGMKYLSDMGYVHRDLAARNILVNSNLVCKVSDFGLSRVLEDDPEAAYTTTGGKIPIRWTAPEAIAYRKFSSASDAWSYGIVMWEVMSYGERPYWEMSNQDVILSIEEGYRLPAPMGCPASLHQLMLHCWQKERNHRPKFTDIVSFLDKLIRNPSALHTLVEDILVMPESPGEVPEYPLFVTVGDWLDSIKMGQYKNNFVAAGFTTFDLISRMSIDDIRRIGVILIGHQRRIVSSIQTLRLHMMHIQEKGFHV

[2] = molecular target: T2, panel of 255 wild-type kinases (Homo sapiens, UniProt P52333); conditions: cited from earlier work
T2 sequence (P52333 1-1124): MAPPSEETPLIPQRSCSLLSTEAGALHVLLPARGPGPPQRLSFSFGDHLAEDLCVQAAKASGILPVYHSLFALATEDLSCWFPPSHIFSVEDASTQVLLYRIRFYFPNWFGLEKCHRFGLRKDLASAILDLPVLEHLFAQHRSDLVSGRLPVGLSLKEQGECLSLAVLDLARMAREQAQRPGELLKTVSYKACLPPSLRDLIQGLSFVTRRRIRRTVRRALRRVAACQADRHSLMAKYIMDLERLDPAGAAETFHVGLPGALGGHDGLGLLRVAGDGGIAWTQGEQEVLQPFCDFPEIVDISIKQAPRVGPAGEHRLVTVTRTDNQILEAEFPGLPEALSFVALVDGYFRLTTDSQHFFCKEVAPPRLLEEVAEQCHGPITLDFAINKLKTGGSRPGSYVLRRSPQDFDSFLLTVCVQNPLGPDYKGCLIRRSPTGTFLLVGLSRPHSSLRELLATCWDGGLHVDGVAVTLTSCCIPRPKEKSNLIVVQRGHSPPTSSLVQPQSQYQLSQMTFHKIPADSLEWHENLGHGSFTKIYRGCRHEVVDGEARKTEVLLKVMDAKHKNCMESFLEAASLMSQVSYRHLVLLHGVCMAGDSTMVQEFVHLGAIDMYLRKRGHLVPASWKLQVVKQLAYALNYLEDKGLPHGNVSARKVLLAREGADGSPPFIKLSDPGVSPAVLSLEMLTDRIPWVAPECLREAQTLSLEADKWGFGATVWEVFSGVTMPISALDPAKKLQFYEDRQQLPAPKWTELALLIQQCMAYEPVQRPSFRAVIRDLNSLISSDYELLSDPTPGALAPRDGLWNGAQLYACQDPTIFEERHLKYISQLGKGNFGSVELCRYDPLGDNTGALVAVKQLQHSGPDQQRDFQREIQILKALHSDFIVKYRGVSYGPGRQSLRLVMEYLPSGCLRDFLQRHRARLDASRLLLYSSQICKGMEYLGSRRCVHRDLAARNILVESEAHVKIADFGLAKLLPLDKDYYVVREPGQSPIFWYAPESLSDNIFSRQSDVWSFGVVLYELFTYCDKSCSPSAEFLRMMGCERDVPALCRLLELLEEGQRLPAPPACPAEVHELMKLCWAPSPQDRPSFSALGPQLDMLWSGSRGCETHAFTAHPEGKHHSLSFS

[3] = kinase EPHA6, 1 µmol/L single concentration, ref DOI: 10.1158/1535-7163.MCT-18-0877
[4] = kinase JAK3, 1 µmol/L single concentration, ref DOI: 10.1158/1535-7163.MCT-18-0877
[5] = kinase EPHA6, 1 µmol/L single concentration, ref DOI: 10.1371/journal.pone.0092146
[6] = kinase JAK3, 1 µmol/L single concentration, ref DOI: 10.1371/journal.pone.0092146

C=CC(=O)N1CCC[C@@H](n2nc(-c3ccc(Oc4ccccc4)cc3)c3c(N)ncnc32)C1 [ibrutinib]
%-inhibition at 1 µmol/L, EPHA6 [1, 3]: 93% | %-inhibition at 1 µmol/L, JAK3 [2, 4]: 91%

CC(=O)Nc1cccc(-n2c(=O)n(C3CC3)c(=O)c3c(Nc4ccc(I)cc4F)n(C)c(=O)c(C)c32)c1 [trametinib]
%-inhibition at 1 µmol/L, EPHA6 [1, 5]: -2.51% | %-inhibition at 1 µmol/L, JAK3 [2, 6]: 6%

Cc1cc(Nc2ncc(Cl)c(Nc3ccccc3S(=O)(=O)C(C)C)n2)c(OC(C)C)cc1C1CCNCC1 [ceritinib]
%-inhibition at 1 µmol/L, EPHA6 [1, 3]: 29% | %-inhibition at 1 µmol/L, JAK3 [2, 4]: 2.84%

C[C@@H](Oc1cc(-c2cnn(C3CCNCC3)c2)cnc1N)c1c(Cl)ccc(F)c1Cl [crizotinib]
%-inhibition at 1 µmol/L, EPHA6 [1, 5]: 100% | %-inhibition at 1 µmol/L, JAK3 [2, 6]: 77%

C=CC(=O)Nc1cc(Nc2nccc(-c3cn(C)c4ccccc34)n2)c(OC)cc1N(C)CCN(C)C [osimertinib]
%-inhibition at 1 µmol/L, EPHA6 [1, 3]: 2.33% | %-inhibition at 1 µmol/L, JAK3 [2, 4]: 97%

CCCS(=O)(=O)Nc1ccc(F)c(C(=O)c2c[nH]c3ncc(-c4ccc(Cl)cc4)cc23)c1F [vemurafenib]
%-inhibition at 1 µmol/L, EPHA6 [1, 5]: 37% | %-inhibition at 1 µmol/L, JAK3 [2, 6]: 10%

O=C(c1ccc(F)c(F)c1Nc1ccc(I)cc1F)N1CC(O)([C@@H]2CCCCN2)C1 [cobimetinib]
%-inhibition at 1 µmol/L, EPHA6 [1, 3]: 1.6% | %-inhibition at 1 µmol/L, JAK3 [2, 4]: -3.25%

CC(C)(C)c1nc(-c2cccc(NS(=O)(=O)c3c(F)cccc3F)c2F)c(-c2ccnc(N)n2)s1 [dabrafenib]
%-inhibition at 1 µmol/L, EPHA6 [1, 5]: 88% | %-inhibition at 1 µmol/L, JAK3 [2, 6]: 22%

CO[C@@H]1[C@H](N(C)C(=O)c2ccccc2)C[C@H]2O[C@]1(C)n1c3ccccc3c3c4c(c5c6ccccc6n2c5c31)C(=O)NC4 [midostaurin]
%-inhibition at 1 µmol/L, EPHA6 [1, 3]: 19% | %-inhibition at 1 µmol/L, JAK3 [2, 4]: 100%

CC#CC(=O)N1CCC[C@H]1c1nc(-c2ccc(C(=O)Nc3ccccn3)cc2)c2c(N)nccn12 [acalabrutinib]
%-inhibition at 1 µmol/L, EPHA6 [1, 3]: -2.37% | %-inhibition at 1 µmol/L, JAK3 [2, 4]: -1%

CCc1cc2c(cc1N1CCC(N3CCOCC3)CC1)C(C)(C)c1[nH]c3cc(C#N)ccc3c1C2=O [alectinib]
%-inhibition at 1 µmol/L, EPHA6 [1, 3]: 0.529% | %-inhibition at 1 µmol/L, JAK3 [2, 4]: 5.58%

COc1cc(N2CCC(N3CCN(C)CC3)CC2)ccc1Nc1ncc(Cl)c(Nc2ccccc2P(C)(C)=O)n1 [brigatinib]
%-inhibition at 1 µmol/L, EPHA6 [1]: 20% | %-inhibition at 1 µmol/L, JAK3 [2]: 97%
